This assay concerns the target EP4 receptor (Homo sapiens, UniProt P35408). The assay can be described thus: cAMP accumulation assay in cells expressing EP4 (Biological Example 1, diol derivative). Type of assay: cell-based. The conditions noted are these: cAMP luminescence, mean of triplicate. On the procedure: Commercial cAMP accumulation assays are typically competitive immunoassays in which free cAMP from cell lysates competes for antibody binding against a "labeled" cAMP molecule. This positive signal is generated in direct proportion to the amount of free cAMP. In our assays cAMP standards and samples are pipetted into the wells of a microplate. An antibody specific cAMP is added to the wells. A substrate is added to the wells and luminescence develops in proportion to the amount of cAMP which accumulated during treatment of cells which express the EP4 receptor with standards and samples. The intensity of the luminescence is measured in a luminometer.
The response of the EP4 expressing cells treated with the diol derivative is compared to Nileprost. Results shown are the mean of triplicate determinations.

EP4 receptor, sequence (P35408 whole entry): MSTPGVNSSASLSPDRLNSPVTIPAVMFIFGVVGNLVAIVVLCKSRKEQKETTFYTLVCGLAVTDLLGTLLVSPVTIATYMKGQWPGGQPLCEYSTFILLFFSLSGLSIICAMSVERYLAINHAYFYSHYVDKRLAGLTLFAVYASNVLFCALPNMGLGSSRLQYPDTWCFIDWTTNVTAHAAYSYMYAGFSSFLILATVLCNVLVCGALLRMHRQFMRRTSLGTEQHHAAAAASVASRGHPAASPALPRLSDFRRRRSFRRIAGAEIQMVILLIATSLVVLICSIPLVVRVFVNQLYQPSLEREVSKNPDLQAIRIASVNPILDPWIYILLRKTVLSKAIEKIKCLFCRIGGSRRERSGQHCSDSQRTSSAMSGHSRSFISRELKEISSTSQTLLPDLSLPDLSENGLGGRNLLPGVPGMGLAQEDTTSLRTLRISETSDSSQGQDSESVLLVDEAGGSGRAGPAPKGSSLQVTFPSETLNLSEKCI

`CCCCC(C)[C@H](O)/C=C/[C@@H]1[C@H]2C/C(=C(\C#N)CCCC(=O)O)O[C@H]2C[C@H]1O` (stereo partly drawn) [Nileprost, 5-cyano-16-methylprostacyclin] showed an RLU - background (compound 0.010 nM) of 0 RLU; an RLU - background (compound 0.152 nM) of 850786 RLU; an RLU - background (compound 0.457 nM) of 1291900 RLU; an RLU - background (compound 1.372 nM) of 1521826 RLU; an RLU - background (compound 4.115 nM) of 1626762 RLU; an RLU - background (compound 12.346 nM) of 1589698 RLU. Also, the RLU - background (compound 37.037 nM) is on record as 1312998 RLU; the RLU - background (compound 111.111 nM) amounted to 1258626 RLU; the RLU - background (compound 333.333 nM) stood at 1648306 RLU; the RLU - background (compound 1000.000 nM) is 1635488 RLU; the RLU - background (compound 3000.000 nM) came out at 1625442 RLU; the RLU - background (compound 9000.000 nM) worked out at 1599712 RLU.

(Values after patent EP1988087A1, “Novel 5-cyano-prostacyclin derivatives and their use as agents for the treatment of autoimmune diseases” (Bayer Schering Pharma Aktiengesellschaft, priority 2007, dated 2008).)
